How the values were obtained:
[1] = target: T1, SIK (Homo sapiens, UniProt P57059); assay: KINOMEscan binding assay at 1 μM, SIK; details: Compound Concentration 1000 nM; read-out: Percent Control
T1 construct: purchased Eurofins DiscoverX KINOMEscan
Text: (§1) Supplement cells-12-00287-s001.zip/File S2. KinomeScan data for the CAMKK2 probe and negative control.xlsx, sheet "SGC-CAMKK2-1N" | column: Percent Control

[2] = target: T2, NEK10 (Homo sapiens, UniProt Q6ZWH5); assay: KINOMEscan at 1 μM, NEK10; type: binding; details: 1000 nM, read-out: Percent Control
T2 construct: purchased Eurofins DiscoverX KINOMEscan
Text: as §1

[3] = target: T3, MET(Y1235D) (Homo sapiens, UniProt P08581, Y1235D); assay: KINOMEscan at 1 μM, MET(Y1235D); type: binding; details: 1000 nM, read-out: Percent Control
T3 construct: purchased Eurofins DiscoverX KINOMEscan
Text: as §1

[4] = target: T4, LIMK2 (Homo sapiens, UniProt P53671); assay: KINOMEscan at 1 μM, LIMK2; type: binding; details: 1000 nM, read-out: Percent Control
T4 construct: purchased Eurofins DiscoverX KINOMEscan
Text: as §1

[5] = target: T5, CSNK1A1L (Homo sapiens, UniProt Q8N752); assay: KINOMEscan at 1 μM, CSNK1A1L; type: binding; details: 1000 nM, read-out: Percent Control
T5 construct: purchased Eurofins DiscoverX KINOMEscan
T5 sequence (Q8N752 whole entry): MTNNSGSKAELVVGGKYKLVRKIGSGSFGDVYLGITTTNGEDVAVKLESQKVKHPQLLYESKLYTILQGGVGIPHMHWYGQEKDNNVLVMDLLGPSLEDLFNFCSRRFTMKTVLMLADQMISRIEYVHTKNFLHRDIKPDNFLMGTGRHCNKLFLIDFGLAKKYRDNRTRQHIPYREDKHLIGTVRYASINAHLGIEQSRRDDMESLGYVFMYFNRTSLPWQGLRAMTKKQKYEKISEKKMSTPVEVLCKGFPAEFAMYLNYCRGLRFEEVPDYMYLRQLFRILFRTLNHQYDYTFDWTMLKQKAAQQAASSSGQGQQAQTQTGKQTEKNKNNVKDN
Text: as §1

[6] = target: T6, MAP4K3 (Homo sapiens, UniProt Q8IVH8); assay: KINOMEscan at 1 μM, MAP4K3; type: binding; details: 1000 nM, read-out: Percent Control
T6 construct: purchased Eurofins DiscoverX KINOMEscan
Text: as §1

[7] = target: T7, ERK3 (Homo sapiens, UniProt Q16659); assay: KINOMEscan at 1 μM, ERK3; type: binding; details: 1000 nM, read-out: Percent Control
T7 construct: purchased Eurofins DiscoverX KINOMEscan
Text: as §1

[8] = target: T8, ZAK (Homo sapiens, UniProt Q9NYL2); assay: KINOMEscan at 1 μM, ZAK; type: binding; details: 1000 nM, read-out: Percent Control
T8 construct: purchased Eurofins DiscoverX KINOMEscan
Text: as §1

[9] = target: T9, AURKA (Homo sapiens, UniProt O14965); assay: KINOMEscan at 1 μM, AURKA; type: binding; details: 1000 nM, read-out: Percent Control
T9 construct: purchased Eurofins DiscoverX KINOMEscan
T9 sequence (O14965 whole entry): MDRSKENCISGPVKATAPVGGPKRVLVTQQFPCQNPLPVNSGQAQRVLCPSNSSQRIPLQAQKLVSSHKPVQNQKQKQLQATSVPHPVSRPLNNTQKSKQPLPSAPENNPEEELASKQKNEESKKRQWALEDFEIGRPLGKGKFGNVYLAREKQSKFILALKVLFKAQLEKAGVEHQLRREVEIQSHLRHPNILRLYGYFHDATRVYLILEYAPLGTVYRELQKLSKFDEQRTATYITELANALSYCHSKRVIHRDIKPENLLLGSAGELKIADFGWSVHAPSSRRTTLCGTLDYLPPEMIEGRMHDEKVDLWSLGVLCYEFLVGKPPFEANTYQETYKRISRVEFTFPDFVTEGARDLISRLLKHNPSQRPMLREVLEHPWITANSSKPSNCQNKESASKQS
Text: as §1

[10] = target: T10, PAK4 (Homo sapiens, UniProt O96013); assay: KINOMEscan at 1 μM, PAK4; type: binding; details: 1000 nM, read-out: Percent Control
T10 construct: purchased Eurofins DiscoverX KINOMEscan
Text: as §1

[11] = target: T11, FGFR2 (Homo sapiens, UniProt P21802); assay: KINOMEscan at 1 μM, FGFR2; type: binding; details: 1000 nM, read-out: Percent Control
T11 construct: purchased Eurofins DiscoverX KINOMEscan
T11 sequence (P21802 22-821): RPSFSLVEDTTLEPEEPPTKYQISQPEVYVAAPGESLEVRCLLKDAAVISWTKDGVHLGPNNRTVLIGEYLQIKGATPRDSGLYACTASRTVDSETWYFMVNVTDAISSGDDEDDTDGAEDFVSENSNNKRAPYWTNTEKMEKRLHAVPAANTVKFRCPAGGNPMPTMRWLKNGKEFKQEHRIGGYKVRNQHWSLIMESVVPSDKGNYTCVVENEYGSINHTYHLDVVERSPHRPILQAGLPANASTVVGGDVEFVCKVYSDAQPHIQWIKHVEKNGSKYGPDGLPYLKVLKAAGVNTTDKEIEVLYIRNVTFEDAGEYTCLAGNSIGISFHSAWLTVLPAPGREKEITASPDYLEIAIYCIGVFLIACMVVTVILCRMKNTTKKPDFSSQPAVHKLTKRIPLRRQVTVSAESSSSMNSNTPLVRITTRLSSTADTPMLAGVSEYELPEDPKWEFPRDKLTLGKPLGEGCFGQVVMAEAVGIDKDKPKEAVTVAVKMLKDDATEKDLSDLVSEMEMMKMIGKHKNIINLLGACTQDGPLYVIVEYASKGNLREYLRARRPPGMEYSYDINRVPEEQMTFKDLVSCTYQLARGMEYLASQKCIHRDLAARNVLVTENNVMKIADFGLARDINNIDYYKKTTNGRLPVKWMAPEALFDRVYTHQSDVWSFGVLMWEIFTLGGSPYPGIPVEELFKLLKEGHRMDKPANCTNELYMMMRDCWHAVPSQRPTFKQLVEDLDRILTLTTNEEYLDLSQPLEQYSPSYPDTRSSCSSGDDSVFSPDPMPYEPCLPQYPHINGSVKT
Text: as §1

[12] = target: T12, MAP4K4 (Homo sapiens, UniProt O95819); assay: KINOMEscan at 1 μM, MAP4K4; type: binding; details: 1000 nM, read-out: Percent Control
T12 construct: purchased Eurofins DiscoverX KINOMEscan
Text: as §1

[13] = target: T13, MYO3A (Homo sapiens, UniProt Q8NEV4); assay: KINOMEscan at 1 μM, MYO3A; type: binding; details: 1000 nM, read-out: Percent Control
T13 construct: purchased Eurofins DiscoverX KINOMEscan
Text: as §1

[14] = target: T14, EPHA2 (Homo sapiens, UniProt P29317); assay: KINOMEscan at 1 μM, EPHA2; type: binding; details: 1000 nM, read-out: Percent Control
T14 construct: purchased Eurofins DiscoverX KINOMEscan
Text: as §1

[15] = target: T15, PRKG1 (Homo sapiens, UniProt Q13976); assay: KINOMEscan binding assay at 1 μM, PRKG1; details: Compound Concentration 1000 nM; read-out: Percent Control
T15 construct: purchased Eurofins DiscoverX KINOMEscan
T15 sequence (Q13976 whole entry): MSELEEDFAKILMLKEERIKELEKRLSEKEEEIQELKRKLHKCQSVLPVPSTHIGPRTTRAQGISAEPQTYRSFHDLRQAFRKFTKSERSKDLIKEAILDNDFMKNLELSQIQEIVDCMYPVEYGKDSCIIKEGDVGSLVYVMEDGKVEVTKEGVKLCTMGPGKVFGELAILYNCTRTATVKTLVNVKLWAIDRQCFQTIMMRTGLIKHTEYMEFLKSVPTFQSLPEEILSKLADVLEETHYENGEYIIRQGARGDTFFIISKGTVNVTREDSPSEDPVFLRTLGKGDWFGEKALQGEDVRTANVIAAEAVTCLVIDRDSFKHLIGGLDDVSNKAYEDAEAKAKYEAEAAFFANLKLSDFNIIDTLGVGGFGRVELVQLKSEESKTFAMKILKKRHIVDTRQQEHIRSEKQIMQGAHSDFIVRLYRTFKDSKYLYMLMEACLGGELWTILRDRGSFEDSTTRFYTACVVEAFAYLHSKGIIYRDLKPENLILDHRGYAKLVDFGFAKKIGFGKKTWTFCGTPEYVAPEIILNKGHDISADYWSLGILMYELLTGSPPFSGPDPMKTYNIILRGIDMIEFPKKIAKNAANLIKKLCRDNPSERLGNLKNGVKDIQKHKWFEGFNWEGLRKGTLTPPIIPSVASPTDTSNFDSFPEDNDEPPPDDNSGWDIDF
Text: as §1

[16] = target: T16, DAPK3 (Homo sapiens, UniProt O43293); assay: KINOMEscan at 1 μM, DAPK3; type: binding; details: 1000 nM, read-out: Percent Control
T16 construct: purchased Eurofins DiscoverX KINOMEscan
Text: as §1

[17] = target: T17, PCTK2 (Homo sapiens, UniProt Q00537); assay: KINOMEscan at 1 μM, PCTK2; type: binding; details: 1000 nM, read-out: Percent Control
T17 construct: purchased Eurofins DiscoverX KINOMEscan
Text: as §1

[18] = target: T18, PIP5K1A (Homo sapiens, UniProt Q99755); assay: KINOMEscan at 1 μM, PIP5K1A; type: binding; details: 1000 nM, read-out: Percent Control
T18 construct: purchased Eurofins DiscoverX KINOMEscan
Text: as §1

[19] = target: T19, FER (Homo sapiens, UniProt P16591); assay: KINOMEscan 1 μM, FER; type: binding; details: 1000 nM; Entrez FER; read-out: Percent Control
T19 construct: purchased Eurofins DiscoverX KINOMEscan
T19 sequence (P16591 whole entry): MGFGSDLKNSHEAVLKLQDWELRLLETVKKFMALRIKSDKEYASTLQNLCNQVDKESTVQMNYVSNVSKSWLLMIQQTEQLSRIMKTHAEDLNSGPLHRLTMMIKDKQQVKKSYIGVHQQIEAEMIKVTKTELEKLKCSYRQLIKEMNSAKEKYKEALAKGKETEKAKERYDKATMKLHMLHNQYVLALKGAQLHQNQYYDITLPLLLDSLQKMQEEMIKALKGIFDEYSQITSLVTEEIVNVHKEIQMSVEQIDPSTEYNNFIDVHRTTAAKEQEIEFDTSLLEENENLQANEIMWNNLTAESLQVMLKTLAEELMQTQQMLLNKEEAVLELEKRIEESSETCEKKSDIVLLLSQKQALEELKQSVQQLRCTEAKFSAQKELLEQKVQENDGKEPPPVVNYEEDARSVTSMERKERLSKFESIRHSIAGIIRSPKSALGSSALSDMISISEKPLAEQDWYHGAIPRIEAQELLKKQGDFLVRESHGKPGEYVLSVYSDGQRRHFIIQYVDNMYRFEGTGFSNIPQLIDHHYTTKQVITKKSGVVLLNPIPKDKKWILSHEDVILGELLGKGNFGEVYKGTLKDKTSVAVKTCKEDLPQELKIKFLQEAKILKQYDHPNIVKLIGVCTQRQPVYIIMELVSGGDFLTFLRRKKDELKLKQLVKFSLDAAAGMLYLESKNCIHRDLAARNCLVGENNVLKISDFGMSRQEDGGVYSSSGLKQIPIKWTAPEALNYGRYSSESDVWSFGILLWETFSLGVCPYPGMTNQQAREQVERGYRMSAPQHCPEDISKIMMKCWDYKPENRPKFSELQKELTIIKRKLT
Text: (§2) Supplement cells-12-00287-s001.zip/File S2. KinomeScan data for the CAMKK2 probe and negative control.xlsx, sheet "SGC-CAMKK2-1" | column: Percent Control

[20] = target: T20, KIT-autoinhibited (Homo sapiens, UniProt P10721); assay: KINOMEscan 1 μM, KIT-autoinhibited; type: binding; details: 1000 nM; Entrez KIT; read-out: Percent Control
T20 construct: purchased Eurofins DiscoverX KINOMEscan
Text: as §2

[21] = target: T21, CDK7 (Homo sapiens, UniProt P50613); assay: KINOMEscan 1 μM, CDK7; type: binding; details: 1000 nM; Entrez CDK7; read-out: Percent Control
T21 construct: purchased Eurofins DiscoverX KINOMEscan
Text: as §2

[22] = target: T22, NEK7 (Homo sapiens, UniProt Q8TDX7); assay: KINOMEscan 1 μM, NEK7; type: binding; details: 1000 nM; Entrez NEK7; read-out: Percent Control
T22 construct: purchased Eurofins DiscoverX KINOMEscan
Text: as §2

[23] = target: T23, AKT2 (Homo sapiens, UniProt P31751); assay: KINOMEscan 1 μM, AKT2; type: binding; details: 1000 nM; Entrez AKT2; read-out: Percent Control
T23 construct: purchased Eurofins DiscoverX KINOMEscan
Text: as §2

[24] = target: T24, AKT1 (Homo sapiens, UniProt P31749); assay: KINOMEscan 1 μM, AKT1; type: binding; details: 1000 nM; Entrez AKT1; read-out: Percent Control
T24 construct: purchased Eurofins DiscoverX KINOMEscan
Text: as §2

[25] = target: T25, ROCK1 (Homo sapiens, UniProt Q13464); assay: DiscoverX KINOMEscan binding assay at 1 μM, ROCK1; details: Compound Concentration 1000 nM, read-out: Percent Control
T25 construct: purchased Eurofins DiscoverX KINOMEscan
Text: as §2

[26] = target: T26, TNIK (Homo sapiens, UniProt Q9UKE5); assay: KINOMEscan 1 μM, TNIK; type: binding; details: 1000 nM; Entrez TNIK; read-out: Percent Control
T26 construct: purchased Eurofins DiscoverX KINOMEscan
Text: as §2

[27] = test system: FLT3(ITD,D835V); assay: KINOMEscan 1 μM, FLT3(ITD,D835V); type: binding, human; details: 1000 nM; Entrez FLT3
Text: as §2

[28] = target: T27, CSNK1E (Homo sapiens, UniProt P49674); assay: KINOMEscan 1 μM, CSNK1E; type: binding; details: 1000 nM; Entrez CSNK1E; read-out: Percent Control
T27 construct: purchased Eurofins DiscoverX KINOMEscan
T27 sequence (P49674 whole entry): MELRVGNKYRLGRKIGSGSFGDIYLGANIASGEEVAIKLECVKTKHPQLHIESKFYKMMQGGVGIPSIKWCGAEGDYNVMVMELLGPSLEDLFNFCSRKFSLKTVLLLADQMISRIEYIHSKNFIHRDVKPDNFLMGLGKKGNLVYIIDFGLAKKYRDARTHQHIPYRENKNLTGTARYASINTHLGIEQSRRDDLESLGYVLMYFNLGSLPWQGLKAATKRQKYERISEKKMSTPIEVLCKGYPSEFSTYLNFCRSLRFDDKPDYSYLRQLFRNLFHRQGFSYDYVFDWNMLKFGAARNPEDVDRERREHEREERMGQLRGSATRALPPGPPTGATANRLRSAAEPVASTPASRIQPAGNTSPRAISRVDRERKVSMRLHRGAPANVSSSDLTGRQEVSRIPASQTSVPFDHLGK
Text: as §2

[29] = target: T28, WEE2 (Homo sapiens, UniProt P0C1S8); assay: DiscoverX KINOMEscan binding assay at 1 μM, WEE2; details: Compound Concentration 1000 nM, read-out: Percent Control
T28 construct: purchased Eurofins DiscoverX KINOMEscan
T28 sequence (P0C1S8 whole entry): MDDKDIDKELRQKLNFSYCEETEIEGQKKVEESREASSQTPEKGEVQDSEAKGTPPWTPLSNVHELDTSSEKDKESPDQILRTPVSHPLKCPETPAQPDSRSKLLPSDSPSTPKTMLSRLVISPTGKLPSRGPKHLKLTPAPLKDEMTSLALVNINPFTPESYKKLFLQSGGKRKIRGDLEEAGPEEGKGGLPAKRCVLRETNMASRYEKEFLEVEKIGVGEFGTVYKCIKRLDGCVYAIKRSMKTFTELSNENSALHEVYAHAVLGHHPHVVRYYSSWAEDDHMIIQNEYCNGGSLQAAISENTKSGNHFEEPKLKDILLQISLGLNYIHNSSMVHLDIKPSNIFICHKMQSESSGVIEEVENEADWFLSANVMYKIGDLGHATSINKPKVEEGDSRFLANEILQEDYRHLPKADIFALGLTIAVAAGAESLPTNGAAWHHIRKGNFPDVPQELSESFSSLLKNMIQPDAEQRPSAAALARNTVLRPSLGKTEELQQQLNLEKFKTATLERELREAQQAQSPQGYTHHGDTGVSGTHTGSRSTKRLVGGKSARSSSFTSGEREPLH
Text: as §2

[30] = target: T29, PDPK1 (Homo sapiens, UniProt O15530); assay: KINOMEscan 1 μM, PDPK1; type: binding; details: 1000 nM; Entrez PDPK1; read-out: Percent Control
T29 construct: purchased Eurofins DiscoverX KINOMEscan
Text: as §2

[31] = target: T30, TTK (Homo sapiens, UniProt P33981); assay: DiscoverX KINOMEscan binding assay at 1 μM, TTK; details: Compound Concentration 1000 nM, read-out: Percent Control
T30 construct: purchased Eurofins DiscoverX KINOMEscan
Text: as §2

[32] = target: T31, NEK9 (Homo sapiens, UniProt Q8TD19); assay: KINOMEscan 1 μM, NEK9; type: binding; details: 1000 nM; Entrez NEK9; read-out: Percent Control
T31 construct: purchased Eurofins DiscoverX KINOMEscan
T31 sequence (Q8TD19 whole entry): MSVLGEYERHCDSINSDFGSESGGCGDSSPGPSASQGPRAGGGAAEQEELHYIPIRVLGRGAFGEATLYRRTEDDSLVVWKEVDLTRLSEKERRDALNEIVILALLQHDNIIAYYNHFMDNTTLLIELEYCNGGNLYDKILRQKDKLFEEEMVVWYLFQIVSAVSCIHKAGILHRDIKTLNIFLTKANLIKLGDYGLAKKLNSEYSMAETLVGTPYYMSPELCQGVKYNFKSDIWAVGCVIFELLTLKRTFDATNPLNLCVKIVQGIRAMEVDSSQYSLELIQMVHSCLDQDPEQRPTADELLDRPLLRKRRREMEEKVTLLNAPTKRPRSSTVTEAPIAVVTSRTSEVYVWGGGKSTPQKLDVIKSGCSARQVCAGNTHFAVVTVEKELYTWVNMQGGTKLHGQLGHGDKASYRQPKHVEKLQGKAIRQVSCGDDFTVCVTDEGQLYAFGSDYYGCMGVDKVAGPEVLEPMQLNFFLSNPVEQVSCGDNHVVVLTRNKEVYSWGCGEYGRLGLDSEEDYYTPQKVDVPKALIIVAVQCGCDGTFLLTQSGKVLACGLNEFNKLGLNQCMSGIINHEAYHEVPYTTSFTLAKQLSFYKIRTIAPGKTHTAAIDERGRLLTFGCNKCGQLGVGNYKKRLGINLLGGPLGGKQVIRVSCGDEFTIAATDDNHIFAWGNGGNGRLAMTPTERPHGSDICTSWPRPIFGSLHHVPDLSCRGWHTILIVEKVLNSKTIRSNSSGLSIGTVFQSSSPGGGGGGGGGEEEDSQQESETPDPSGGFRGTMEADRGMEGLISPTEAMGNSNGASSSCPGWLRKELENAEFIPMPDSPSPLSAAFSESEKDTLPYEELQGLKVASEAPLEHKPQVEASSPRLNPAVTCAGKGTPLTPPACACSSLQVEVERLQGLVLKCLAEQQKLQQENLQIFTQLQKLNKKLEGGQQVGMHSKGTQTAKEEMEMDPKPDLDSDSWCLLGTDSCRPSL
Text: as §2

[33] = target: T32, AMPK-alpha1 (Homo sapiens, UniProt Q13131); assay: KINOMEscan 1 μM, AMPK-alpha1; type: binding; details: 1000 nM; Entrez PRKAA1; read-out: Percent Control
T32 construct: purchased Eurofins DiscoverX KINOMEscan
Text: as §2

[34] = target: T33, FAK (Homo sapiens, UniProt Q05397); assay: KINOMEscan 1 μM, FAK; type: binding; details: 1000 nM; Entrez PTK2; read-out: Percent Control
T33 construct: purchased Eurofins DiscoverX KINOMEscan
Text: as §2

O=C(O)c1ccc(-c2coc3ncc(-c4ccccc4)cc23)cc1Cl [SGC-CAMKK2-1N (UNC-YL-83)]
remaining binding at 1 µM [1]: 100%
remaining binding at 1 µM [2]: 82%
remaining binding at 1 µM [3]: 91%
remaining binding at 1 µM [4]: 92%
remaining binding at 1 µM [5]: 99%
remaining binding at 1 µM [6]: 91%
remaining binding at 1 µM [7]: 92%
remaining binding at 1 µM [8]: 69%
remaining binding at 1 µM [9]: 74%
remaining binding at 1 µM [10]: 82%
remaining binding at 1 µM [11]: 84%
remaining binding at 1 µM [12]: 94%
remaining binding at 1 µM [13]: 72%
remaining binding at 1 µM [14]: 76%
remaining binding at 1 µM [15]: 100%
remaining binding at 1 µM [16]: 71%
remaining binding at 1 µM [17]: 81%
remaining binding at 1 µM [18]: 87%

Cc1cccc(-c2cnc3occ(-c4ccc(C(=O)O)c(C5CCCC5)c4)c3c2)c1 [SGC-CAMKK2-1 (YL-36)]
remaining binding at 1 µM [19]: 77%
remaining binding at 1 µM [20]: 100%
remaining binding at 1 µM [21]: 92%
remaining binding at 1 µM [22]: 100%
remaining binding at 1 µM [23]: 100%
remaining binding at 1 µM [24]: 100%
remaining binding at 1 µM [25]: 100%
remaining binding at 1 µM [26]: 92%
Percent Control [27]: 88%
remaining binding at 1 µM [28]: 75%
remaining binding at 1 µM [29]: 100%
remaining binding at 1 µM [30]: 95%
remaining binding at 1 µM [31]: 100%
remaining binding at 1 µM [32]: 100%
remaining binding at 1 µM [33]: 95%
remaining binding at 1 µM [34]: 92%

Reference: article PMC9856672, “SGC-CAMKK2-1: A Chemical Probe for CAMKK2” (Cells, 2023)
